Source: US20090035345A1, “Nuclear Receptors Agonists for Treatment of Atherosclerosis and/or Related Cardiovascular Disease” (ACADEMISCH MEDISCH CENTRUM, BUREAU, priority 2005, published 2009)

What was measured:
human SMCs [1] = assay: DNA synthesis assay ([3H]thymidine incorporation) in FBS-stimulated cultured SMCs; format: cell-based; conditions: for DNA synthesis in SMCs: increasing concentrations of C-DIM
Description: (§1) Human SMCs were explanted from umbilical cord arteries. Cells were cultured in DMEM (Invitrogen Life Technology, Breda, The Netherlands) with 10% (v/v) fetal bovine serum (FBS) with penicillin and streptomycin (Invitrogen). Cells were used at passages five to seven. […] To determine cellular viability, cells were washed with PBS and subsequently incubated in medium in the presence of 0.5-mg/ml 3-(4,5-dimethylthiazol-2-yl)-2,5-diphenyltetrazolium bromide (MTT; Sigma Diagnostics, St. Louis). After two hours, medium was discarded, formazan crystals were dissolved in isopropanol and optical density was measured at 590 nm. Apoptosis was induced by incubating cells for 24 hours in medium with 0.25 μM staurosporine (Sigma). Subsequently, SMCs were fixed, stained with Hoechst dye and the relative number of apoptotic nuclei was determined.
SMCs were seeded in 24-well plates at 1−4×10^4 cells per well and reached 60% to 70% confluency after 24 hours. SMCs were made quiescent by incubation for 24 hours in FBS-free medium. 6-MP was dissolved in dimethylsulfoxide and applied one hour before FBS stimulation. SMCs were stimulated for 24 hours with 10% (v/v) FBS and subsequently cells were labeled for 18 hours with 0.25 μCi/well [methyl-3H]thymidine (Amersham Biosciences, Buckinghamshire, UK). Incorporated radioactivity was precipitated for 30 min at 4° C. with 10% (w/v) trichloroacetic acid, washed twice with 5% (w/v) trichloroacetic acid, and dissolved in 0.5 N NaOH (0.5 mL per well). Incorporated [^3H]thymidine was measured by liquid-scintillation counting.
(§2) The following small interfering (si)RNA sequences were used: Nur77 siRNA, 5′-CAG UCC AGC CAU GCU CCU C dTdT-3′, as described previously^20, and control siRNA, 5′-CAG ACG AGC CUU GCU CGU C dTdT-3′ (Ambion Inc., Austin, Tex.). Five μg of siRNA was transfected into 0.5−1×10^6 SMCs, using Nucleofector reagent for SMCs (Amaxa) as per the manufacturer's recommendations. Total mRNA was isolated five days after transfection, using the absolutely mRNA miniprep kit (Stratagene, La Jolla, Calif.). Subsequent cDNA synthesis was performed using the iScript cDNA synthesis kit (Biorad, Hercules, Calif.). Real-time polymerase chain reaction (PCR) was performed using SYBR green mix (Biorad) in the MyIQ System (Biorad). Primers for Nur77 were as follows: (forward) 5′-[…]-3′ and (reverse) 5′-[…]-3′. As a control for equal amount of first strand cDNA in different samples we corrected for Ribosomal Phosphoprotein (P0) mRNA levels, which were determined with the following primers (forward) 5′-[…]-3′ and (reverse) 5′-[…]-3′.
as §2, with “iscript” for “iScript”

TR3-like factors = conditions: Chintharlapalli et al., J Biol. Chem. 2005; cited from earlier work
human SMCs [2] = assay: SMC viability by MTT assay; format: cell-based; conditions: quiescent SMCs, 24 hours
Description: as §1

human SMCs [3] = assay: Apoptosis of SMCs, Hoechst staining of nuclei; format: cell-based; conditions: 24 hours
Description: as §1

SMILES	DNA synthesis in SMCs (human SMCs [1]; serum)	activity of TR3-like factors (TR3-like factors)	effectiveness in inhibiting DNA synthesis compared with the other C-DIMs (human SMCs [1]; serum, increasing concentrations)	inhibition of DNA synthesis (human SMCs [1]; SMCs transfected with Nur77 (TR3)-specific siRNA)	inhibition of DNA synthesis (human SMCs [1]; SMCs transfected with control siRNA)	cellular viability / cytotoxicity (MTT) (human SMCs [2])	reduction of number of viable cells (MTT) (human SMCs [2])	induction of apoptosis (human SMCs [3]; SMCs, staurosporine 0.25 μM)	apoptosis (apoptotic nuclei) (human SMCs [3]; quiescent SMCs)
FC(F)(F)c1ccc(C(c2c[nH]c3ccccc23)c2c[nH]c3ccccc23)cc1 [C-DIM-CF3]	inhibit DNA synthesis in SMCs dose dependently	increase the activity of TR3-like factors	–	–	–	–	–	–	–
c1ccc(C(c2c[nH]c3ccccc23)c2c[nH]c3ccccc23)cc1 [C-DIM-H]	inhibit DNA synthesis in SMCs dose dependently	increase the activity of TR3-like factors	less effective	–	–	–	–	–	–
COc1ccc(C(c2c[nH]c3ccccc23)c2c[nH]c3ccccc23)cc1 [C-DIM-OCH3]	inhibit DNA synthesis in SMCs dose dependently	increase the activity of TR3-like factors	–	40.1%	49.7%	–	–	–	–
CN[C@@H]1C[C@H]2O[C@@](C)([C@@H]1OC)n1c3ccccc3c3c4c(c5c6ccccc6n2c5c31)C(=O)NC4 [staurosporine]	–	–	–	–	–	reduces cell viability	35%	induces apoptosis	50%±4%
